In patent publication US4272437A, “Antibacterial agents, and 4-thio azetidinone intermediates” (priority 1979, dated 1981):
In brackets after ≈: the same amount, converted by molar mass.

Assays:
Format in all cases: cell-based
Pr. mirabilis A-9900 = test: MIC, tube dilution, Proteus mirabilis A9900; conditions: Proteus mirabilis, A9900, Proteus mirabilis A9900; overnight 37° C.; read-out: Minimum Inhibitory Concentration (M.I.C.)
From the text: (§1) Representative compounds of the present invention were subjected to in vitro antibiotic screening against a variety of microorganisms.

Ent. cloacae A-9656 = test: MIC, tube dilution, Enterobacter cloacae A9656; conditions: Enterobacter cloacae, A9656, Enterobacter cloacae A9656; overnight 37° C.; read-out: Minimum Inhibitory Concentration (M.I.C.)
From the text: as §1

Ser. marcescens A-20019 = test: MIC, tube dilution, Serratia marcescens A20019; conditions: Serratia marcescens, A20019, Serratia marcescens A20019; overnight 37° C.; read-out: Minimum Inhibitory Concentration (M.I.C.)
From the text: as §1

Str. faecalis A-20688 = test: MIC, tube dilution, Streptococcus faecalis A20688; conditions: Enterococcus faecalis, A20688, Str. faecalis A20688; overnight 37° C.; read-out: Minimum Inhibitory Concentration (M.I.C.)
From the text: as §1

Work on `NCCCCC1=C(C(=O)O)N2C(=O)CC2S1` (stereo not shown) [Example 73, 2-(4'-Aminobutyl)-penem-3-carboxylic Acid] yielded an MIC (Pr. mirabilis A-9900) of 8 µg/mL (≈ 33 µM), an MIC (Ent. cloacae A-9656) of 32 µg/mL (≈ 132 µM) and an MIC (Ser. marcescens A-20019) of 16 µg/mL (≈ 66 µM). The MIC (Str. faecalis A-20688) was 32 µg/mL (≈ 132 µM).
